Data as given in patent publication US20160115188A1, “NOVEL alpha-GALACTOSYL CERAMIDE ANALOGS AND USES THEREOF” (Chang Gung Memorial Hospital, Linkou, priority 2014, published 2016).

What was measured:
Human iNKT cells = assay: Cytokine production of human iNKT cells co-cultured with compound-loaded dendritic cells (Luminex); type: cell-based; settings: for ratio of IL-4/IFN-γ / ratio of IL-10/IFN-γ: human iNKT cells with compound-loaded dendritic cells, Th2 skewing; for IL-2 level induced / IL-4 level induced / GM-CSF level induced / IFN-γ level induced / IL-10 level induced: dendritic cells loaded with 1 μM compound, cultured with iNKT cells for 3 days, mean±SD
Procedure: The immune response elicited by Compounds 1 and 2a-2i in human NKT cells was evaluated using human dendritic cell (DC).
Method: Human iNKT cells were isolated with anti-TCR Vα24 antibody and cultured for 7 days in the presence of IL-2 (1 μg/mL). The dendritic cells were generated from CD14+ cells, sorted from peripheral blood mononuclear cells (PBMC) by incubating PBMC for 7 days with GM-CSF (50 ng/mL) and IL-4 (50 ng/mL). Dendritic cells were loaded with the following: 1 μM of Compound 1 or 1 μM of Compounds 2a-2i, and cultured with iNKT cells for 3 days. The culture supernatants were collected and analyzed for various cytokines production by Luminex. Data were presented as mean±SD and analyzed by one-way ANOVA.
The ratios of IL-4/IFN-γ and IL-10/IFN-γ were used evaluate if the immune response elicited by Compounds 1 and 2a-2i was skewed toward Th2 mediated response.

[1] = Solubility noted during characterisation; type: physicochemical; settings: room temperature; prevented optical rotation measurement
mNK1.2 cells = assay: Induction of IL-2 in mNK1.2 cells cultured with compound-loaded A20-CD1d cells (ELISA); type: cell-based, murine; settings: cultured with mNK1.2 cells, supernatant after 72 hours
Procedure: The immune response elicited by Compounds 1 and 2a-2i was assessed by the induction of IL-2 in mNK1.2 cells. Compound 1 is illustrated by the following formula: […]
Method: A20-CD 1d cells were loaded with Compound 1 (α-GalCer) and Compounds 2a-2i, and cultured with mNK1.2 cells. Supernatants were collected after 72 hours to determine the production of IL-2 by ELISA.

[2] = in words, relative to Compound 1

melting point [°C] | SMILES | ratio of IL-4/IFN-γ (Human iNKT cells) | ratio of IL-10/IFN-γ (Human iNKT cells) | IL-2 level induced (Human iNKT cells) [pg/mL] | IL-4 level induced (Human iNKT cells) [pg/mL] | IFN-γ level induced (Human iNKT cells) [pg/mL] | other results
– | CCCCCCCCCCCCCCCCCCCCCCCCCC(=O)N[C@@H](CO[C@H]1O[C@H](COCCCCCCCCCCCCCCCCCCCC)[C@H](O)[C@H](O)[C@H]1O)[C@H](O)[C@H](O)CCCCCCCCCCCCCC [Compound 2f, (2S,3S,4R)-1-O-(6-O-eicosanyl-α-D-galactopyranosyl)-D-ribo-2-hexacosanoylamino-1,3,4-oc-tadecantriol] | 0.093±0.041 | 0.69±0.24 | – | – | – | –
– | CCCCCCCCCCCCCCCCCCCCCCCCCC(=O)N[C@@H](CO[C@H]1O[C@H](COCCCCCCCCCCCC)[C@H](O)[C@H](O)[C@H]1O)[C@H](O)[C@H](O)CCCCCCCCCCCCCC [Compound 2d, (2S,3S,4R)-1-O-(6-O-dodecyl-α-D-galactopyranosyl)-D-ribo-2-hexacosanoylamino-1,3,4-oct-adecantriol] | 0.331±0.074 | 0.83±0.1 | 33.8 ± 0.2 | 191.5 ± 35.3 | – | –
– | CCCCCCCCCCCCCCCCCCCCCCCCCC(=O)N[C@@H](CO[C@H]1OC(COS(=O)(=O)[O-])[C@H](O)C(O)C1O)[C@H](O)[C@H](O)CCCCCCCCCCCCCC.[Na+] (stereo partly drawn) [Compound 2h, (2S,3S,4R)-1-O-(6-O-sulfo-α-D-galactopyranosyl)-D-ribo-2-hexacosanoylamino-1,3,4-octadecantriol, sodium salt] | – | – | 60.3 ± 24.4 | 113.9 ± 28.4 | 2739 ± 14.52 | GM-CSF level induced (Human iNKT cells): 2024 ± 108.4 pg/mL
– | CCCCCCCCCCCCCCCCCCCCCCCC(=O)N[C@@H](COC1OC(CO)C(O)C(O)C1O)[C@H](O)[C@H](O)CCCCC (some centres unmarked) [OCH, reference compound] | 0.25 | 0.26 | – | – | – | –
187 to 188 | CCCCCCCCCCCCCCCCCCCCCCCCCC(=O)N[C@@H](CO[C@H]1OC(CN)[C@H](O)C(O)C1O)[C@H](O)[C@H](O)CCCCCCCCCCCCCC (stereo partly drawn) [Compound 2i, (2S,3S,4R)-1-O-(6-amine-α-D-galactopyranosyl)-D-ribo-2-hexacosanoylamino-1,3,4-octadecantriol] | – | – | – | – | 2687 ± 89.4 | IL-10 level induced (Human iNKT cells): 2001 ± 46.8 pg/mL; level of IFN-γ compared to Compound 1 (Human iNKT cells; [2]): comparable level; level of IL-4 compared to Compound 1 (Human iNKT cells; [2]): lower level; ratio of IL-4/IFN-γ compared to Compound 1 (Human iNKT cells; [2]): lower ratio; solubility [1]: poor solubility
64 to 66 | CCCCCCCCCCCCCCCCCCCCCCCCCC(=O)N(C)[C@@H](CO[C@H]1OC(COC)[C@H](O)[C@H](O)C1O)[C@H](O)[C@H](O)CCCCCCCCCCCCCC (stereo partly drawn) [Compound 2a, (2S,3S,4R)-1-O-(6-O-methyl-α-D-galactopyranosyl)-D-ribo-2-N-methyl-hexacosanoylamino-1,3,4-octadecantriol] | 0.032±0.0009 | 0.63±0.07 | – | – | – | –
– | CCCCCCCCCCCCCCCCCCCCCCCCCC(=O)N[C@@H](CO[C@H]1O[C@H](COC)[C@H](O)[C@H](O)[C@H]1O)[C@H](O)[C@H](O)CCCCCCCCCCCCCC [Compound 2b, (2S,3S,4R)-1-O-(6-O-methyl-α-D-galactopyranosyl)-D-ribo-2-hexacosanoylamino-1,3,4-octa-decantriol] | – | – | – | – | 2286 ± 344.3 | IL-2 level induced (mNK1.2 cells): 13.3 ± 1.3 ng/mL; levels of cytokines induced compared to Compound 1 (Human iNKT cells; [2]): similar
– | CCCCCCCCCCCCCCCCCCCCCCCCCC(=O)N[C@@H](CO[C@H]1O[C@H](COCCCCCC)[C@H](O)[C@H](O)[C@H]1O)[C@H](O)[C@H](O)CCCCCCCCCCCCCC [Compound 2c, (2S,3S,4R)-1-O-(6-O-hexyl-α-D-galactopyranosyl)-D-ribo-2-hexacosanoylamino-1,3,4-octa-decantriol] | 0.044±0.011 | 0.91±0.26 | – | – | – | –
182 | CCCCCCCCCCCCCCCCCCCCCCCCCC(=O)N[C@@H](CO[C@H]1OC(COP(=O)(O)O)[C@H](O)C(O)C1O)[C@H](O)[C@H](O)CCCCCCCCCCCCCC (stereo partly drawn) [Compound 2g, (2S,3S,4R)-1-O-(6-O-phospho-α-D-galactopyranosyl)-D-ribo-2-hexacosanoylamino-1,3,4-oc-tadecantriol, phosphoric acid] | – | – | – | – | 2704 ± 10.3 | GM-CSF level induced (Human iNKT cells): 1350 ± 146.2 pg/mL; IL-10 level induced (Human iNKT cells): 2010 ± 325.1 pg/mL
– | CCCCCCCCCCCCCCCCCCCCCCCCCC(=O)N[C@@H](CO[C@H]1O[C@H](COCCCCCCCCCCCCC)[C@H](O)[C@H](O)[C@H]1O)[C@H](O)[C@H](O)CCCCCCCCCCCCCC [Compound 2e, (2S,3S,4R)-1-O-(6-O-tridecyl-α-D-galactopyranosyl)-D-ribo-2-hexacosanoylamino-1,3,4-oct-adecantriol] | 0.246±0.053 | 0.73±0.03 | 32.5 ± 1.7 | 140.4 ± 6.1 | – | –
